Source: PubChem BioAssay (NCI)
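These data come from cells grown in 96-well plates and exposed to compound for 48 hours at five concentrations. TGI marks complete inhibition of growth.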

Key:
Test in all cases: NCI anticancer screen, dose series, 48 h
NCI-H23 lung = tested on: NCI-H23 lung
MDA-MB-231 breast = tested on: MDA-MB-231 breast
RXF 393 renal = tested on: RXF 393 renal
HOP-92 NSCLC = tested on: HOP-92 NSCLC
SK-OV-3 ovarian = tested on: SK-OV-3 ovarian
MDA-MB-435 = tested on: MDA-MB-435
NCI/ADR-RES ovarian = tested on: NCI/ADR-RES ovarian
HL-60(TB) leukemia = tested on: HL-60(TB) leukemia
UO-31 renal = tested on: UO-31 renal
OVCAR-3 ovarian = tested on: OVCAR-3 ovarian
BT-549 breast = tested on: BT-549 breast
A549 NSCLC = tested on: A549 NSCLC
SNB-19 CNS = tested on: SNB-19 CNS
MDA-N = tested on: MDA-N
SNB-75 CNS = tested on: SNB-75 CNS
ACHN renal = tested on: ACHN renal
UACC-62 melanoma = tested on: UACC-62 melanoma
LOX IMVI melanoma = tested on: LOX IMVI melanoma
NCI-H460 lung = tested on: NCI-H460 lung
K-562 leukemia = tested on: K-562 leukemia

Measured: TGI

CCOC(=O)C(NC(C)=O)(Nc1ccc(F)cc1)C(F)(F)F (stereo not given)
> 100 µM: NCI-H23 lung | MDA-MB-231 breast | RXF 393 renal | HOP-92 NSCLC | SK-OV-3 ovarian | MDA-MB-435 | NCI/ADR-RES ovarian | HL-60(TB) leukemia | UO-31 renal | OVCAR-3 ovarian | BT-549 breast | A549 NSCLC | SNB-19 CNS | MDA-N | SNB-75 CNS | ACHN renal | UACC-62 melanoma | LOX IMVI melanoma | NCI-H460 lung | K-562 leukemia
